Source: the NIST ThermoML archive (doi:10.1021/je3009599)

Settings: Liquid

CCCC(=O)OCC [ethyl butanoate]
Settings | vapor or sublimation pressure [kPa]
348.97 K | 22.5
351.83 K | 25
354.39 K | 27.5
356.76 K | 30.03
359 K | 32.51
361.08 K | 35.02
363.04 K | 37.52
364.86 K | 40.04
366.66 K | 42.51
368.24 K | 45.03
369.87 K | 47.51
371.44 K | 50.01
372.86 K | 52.51
374.31 K | 55.03
375.67 K | 57.52
376.95 K | 60
379.48 K | 65.03
380.68 K | 67.53
381.82 K | 70
382.96 K | 72.52
384.07 K | 75.01
385.13 K | 77.51
386.19 K | 79.99
387.22 K | 82.52
388.21 K | 85.02
389.17 K | 87.54
390.12 K | 89.98
391.06 K | 92.53
391.95 K | 94.92
392.83 K | 97.45
393.71 K | 100.01
394.13 K | 101.31

CCCC(C)O (stereo not given) [pentan-2-ol]
Settings | vapor or sublimation pressure [kPa]
354.47 K | 22.55
356.6 K | 25.05
358.86 K | 27.47
360.81 K | 30.03
362.76 K | 32.55
364.38 K | 35.08
366 K | 37.56
367.49 K | 40.03
369.03 K | 42.51
370.52 K | 45.07
371.77 K | 47.54
373.05 K | 50.02
374.33 K | 52.58
375.51 K | 55.03
376.68 K | 57.48
377.81 K | 60.03
378.95 K | 62.45
379.97 K | 65.05
381.01 K | 67.58
381.96 K | 70.03
382.9 K | 72.56
383.88 K | 75.05
384.79 K | 77.59
385.64 K | 80.03
386.56 K | 82.58
387.35 K | 85.01
388.19 K | 87.55
389 K | 90.09
389.76 K | 92.52
390.55 K | 95.02
391.31 K | 97.55
392.07 K | 100.03
392.26 K | 101.38
